# Data reported in PubChem BioAssay AID248 (DTP/NCI, 2004).
# Values joined by “and” are separate entries in the source; they are usually repeats but may differ in a detail not shown here. Equal values may be shown once. Toxic doses and inconclusive results are not listed.
# System: L1210 leukemia ip in BDF1 mice, survival T/C
# Test: NCI In Vivo Anticancer Drug Screen. Data for tumor model L1210 Leukemia (intraperitoneal) in B6D2F1 (BDF1) mice
# Conditions: endpoint: mean survival time, higher = longer survival
# Method in brief: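 Value reflects the ratio of survival in compound-treated mice to survival in vehicle-treated controls, with both groups carrying the same transplanted tumor.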
# [1] = dose: 100.0 mg/kg/injection, schedule: Q01DX001 (ip), vehicle: saline
# [2] = dose: 200.0 mg/kg/injection, schedule: Q01DX001 (ip), vehicle: saline
# [3] = dose: 400.0 mg/kg/injection, schedule: Q01DX001 (ip), vehicle: saline
# [4] = dose: 100.0 mg/kg/injection, schedule: Q04DX003 (ip), vehicle: saline
# [5] = dose: 200.0 mg/kg/injection, schedule: Q04DX003 (ip), vehicle: saline
# [6] = dose: 100.0 mg/kg/injection, schedule: Q01DX001 (ip), vehicle: carboxymethylcellulose (CMC)
# [7] = dose: 200.0 mg/kg/injection, schedule: Q01DX001 (ip), vehicle: carboxymethylcellulose (CMC)
# [8] = dose: 400.0 mg/kg/injection, schedule: Q01DX001 (ip), vehicle: carboxymethylcellulose (CMC)
# [9] = dose: 100.0 mg/kg/injection, schedule: Q04DX003 (ip), vehicle: Klucel (hydroxypropylcellulose) (HPC)
# [10] = dose: 100.0 mg/kg/injection, schedule: Q04DX003 (ip), vehicle: saline with Tween-80
# [11] = dose: 200.0 mg/kg/injection, schedule: Q04DX003 (ip), vehicle: Klucel (hydroxypropylcellulose) (HPC)
# [12] = dose: 400.0 mg/kg/injection, schedule: Q04DX003 (ip), vehicle: Klucel (hydroxypropylcellulose) (HPC)
# [13] = dose: 100.0 mg/kg/injection, schedule: Q01DX009 (ip), vehicle: saline with Tween-80
# [14] = dose: 400.0 mg/kg/injection, schedule: Q01DX009 (ip), vehicle: saline with Tween-80
# [15] = dose: 200.0 mg/kg/injection, schedule: Q01DX009 (ip), vehicle: saline with Tween-80
structure (smiles),measurement,setting,value
CN(C)N=Nc1ccc(CCC(=O)NN)cc1,T/C,"dose: 20.0 mg/kg/injection, schedule: Q01DX Z (ip), vehicle: saline",111 % of control
same,T/C,"dose: 30.0 mg/kg/injection, schedule: Q01DX Z (ip), vehicle: saline",114 % of control
same,T/C,"dose: 67.0 mg/kg/injection, schedule: Q01DX Z (ip), vehicle: saline",91 % of control
COc1cc2c(O)cc(C(=O)OC(C)(C)C)c(-c3cc(OC)c(OC)c(OC)c3)c2cc1OC,T/C,[1],97 % of control
same,T/C,[2],95 % of control
same,T/C,[3],89 % of control
ClCCCSc1ccccc1,T/C,[1],96 % of control and 111 % of control
same,T/C,[2],96 % of control and 98 % of control
same,T/C,[3],97 % of control and 98 % of control
N#CCC[N+]1([O-])CCCCC1C(=O)O (stereo not given),T/C,[1],98 % of control
same,T/C,[2],98 % of control
Cc1c(C(=O)Nc2ccc(C3=NCCN3)cc2)cccc1C(=O)Nc1ccc(C2=NCCN2)cc1,T/C,"dose: 42.0 mg/kg/injection, schedule: Q01DX Z (ip), vehicle: carboxymethylcellulose (CMC)",104 % of control
same,T/C,"dose: 85.0 mg/kg/injection, schedule: Q01DX Z (ip), vehicle: carboxymethylcellulose (CMC)",104 % of control
CCC(=O)Nc1cccc(OP(=O)(N(C)C)N(C)C)c1,T/C,"dose: 100.0 mg/kg/injection, schedule: Q01DX001 (ip), vehicle: saline with Tween-80",96 % of control
same,T/C,"dose: 200.0 mg/kg/injection, schedule: Q01DX001 (ip), vehicle: saline with Tween-80",102 % of control
same,T/C,"dose: 400.0 mg/kg/injection, schedule: Q01DX001 (ip), vehicle: saline with Tween-80",88 % of control
CCCC[n+]1cnc(N)c2[nH]cnc21,T/C,"dose: 50.0 mg/kg/injection, schedule: Q04DX003 (ip), vehicle: saline",93 % of control
same,T/C,[4],91 % of control
same,T/C,[5],100 % of control
O=C(Oc1ccccc1[N+](=O)[O-])Oc1ccccc1[N+](=O)[O-],T/C,[6],96 % of control
same,T/C,[7],93 % of control
same,T/C,[8],104 % of control
C=COCCCCCC,T/C,"dose: 100.0 mg/kg/injection, schedule: Q04DX002 (ip), vehicle: saline",103 % of control
same,T/C,"dose: 200.0 mg/kg/injection, schedule: Q04DX002 (ip), vehicle: saline",100 % of control
same,T/C,"dose: 400.0 mg/kg/injection, schedule: Q04DX002 (ip), vehicle: saline",90 % of control
O=C(CC(=O)c1ccccc1)Nc1ccccn1,T/C,[1],101 % of control
same,T/C,[2],98 % of control
NC(=O)c1ccc([N+](=O)[O-])s1,T/C,"dose: 25.0 mg/kg/injection, schedule: Q04DX003 (ip), vehicle: saline with Tween-80",98 % of control
same,T/C,"dose: 50.0 mg/kg/injection, schedule: Q04DX003 (ip), vehicle: saline with Tween-80",104 % of control
same,T/C,[9],100 % of control
same,T/C,[10],96 % of control
CC12CCC(=O)C=C1CCC1C2C(=O)CC2(C)C1CCC2(O)C(=O)CSc1ncnc2nc[nH]c12 (stereo not given),T/C,"dose: 100.0 mg/kg/injection, schedule: Q01DX001 (sc), vehicle: steriod suspending solution",103 % of control
same,T/C,"dose: 200.0 mg/kg/injection, schedule: Q01DX001 (sc), vehicle: steriod suspending solution",106 % of control
same,T/C,"dose: 400.0 mg/kg/injection, schedule: Q01DX001 (sc), vehicle: steriod suspending solution",112 % of control
OCCNc1nc2cc(Cl)ccc2c2ccc(Cl)cc12,T/C,"dose: 100.0 mg/kg/injection, schedule: Q01DX009 (ip), vehicle: Klucel (hydroxypropylcellulose) (HPC)",91 % of control
same,T/C,[9],96 % of control
same,T/C,"dose: 200.0 mg/kg/injection, schedule: Q01DX009 (ip), vehicle: Klucel (hydroxypropylcellulose) (HPC)",99 % of control
same,T/C,[11],93 % of control
same,T/C,[12],96 % of control
CN(N)P(=S)(c1ccccc1)N(C)N,T/C,"dose: 6.25 mg/kg/injection, schedule: Q01DX009 (ip), vehicle: Klucel (hydroxypropylcellulose) (HPC)",97 % of control
same,T/C,"dose: 12.5 mg/kg/injection, schedule: Q01DX009 (ip), vehicle: Klucel (hydroxypropylcellulose) (HPC)",100 % of control
same,T/C,"dose: 12.5 mg/kg/injection, schedule: Q04DX003 (ip), vehicle: Klucel (hydroxypropylcellulose) (HPC)",97 % of control
same,T/C,"dose: 25.0 mg/kg/injection, schedule: Q01DX009 (ip), vehicle: Klucel (hydroxypropylcellulose) (HPC)",94 % of control
same,T/C,"dose: 25.0 mg/kg/injection, schedule: Q04DX003 (ip), vehicle: Klucel (hydroxypropylcellulose) (HPC)",92 % of control
CCN(CC)N=Nc1ccccc1-c1nc(N)nc(N)n1,T/C,[9],95 % of control
same,T/C,[11],108 % of control
CC1(c2ccsc2)NC(=O)NC1=O (stereo not given),T/C,[1],93 % of control
same,T/C,[2],93 % of control
same,T/C,[3],90 % of control
O=[N+]([O-])c1cc(C=Nc2ccccc2)ccc1Cl,T/C,"dose: 100.0 mg/kg/injection, schedule: Q01DX009 (ip), vehicle: saline",97 % of control
same,T/C,[9],94 % of control
same,T/C,"dose: 200.0 mg/kg/injection, schedule: Q01DX009 (ip), vehicle: saline",108 % of control
same,T/C,[11],100 % of control
same,T/C,"dose: 400.0 mg/kg/injection, schedule: Q01DX009 (ip), vehicle: saline",103 % of control
same,T/C,[12],97 % of control
S=c1[nH]c(=S)c2[nH]cnc(=S)c2[nH]1,T/C,"dose: 2.0 mg/kg/injection, schedule: Q01DX Z (ip), vehicle: carboxymethylcellulose (CMC)",103 % of control
same,T/C,"dose: 4.0 mg/kg/injection, schedule: Q01DX Z (ip), vehicle: carboxymethylcellulose (CMC)",91 % of control
same,T/C,"dose: 8.0 mg/kg/injection, schedule: Q01DX Z (ip), vehicle: carboxymethylcellulose (CMC)",89 % of control
same,T/C,"dose: 12.5 mg/kg/injection, schedule: Q01DX Z (ip), vehicle: carboxymethylcellulose (CMC)",91 % of control
same,T/C,"dose: 25.0 mg/kg/injection, schedule: Q01DX Z (ip), vehicle: carboxymethylcellulose (CMC)",96 % of control
CCC(CO)Nc1nncc2ccccc12 (stereo not given),T/C,[1],98 % of control
same,T/C,[2],96 % of control
same,T/C,[3],104 % of control
O=C(NCc1cnccn1)Oc1ccc([N+](=O)[O-])cc1,T/C,"dose: 50.0 mg/kg/injection, schedule: Q01DX009 (ip), vehicle: saline with Tween-80",93 % of control
same,T/C,[13],103 % of control
same,T/C,[14],98 % of control
Nc1nc(N)c2cc(CNc3ccc(C(=O)NC(C(=O)O)C(=O)O)cc3)ccc2n1,T/C,"dose: 0.06 mg/kg/injection, schedule: Q01DX001 (ip), vehicle: saline",122 % of control
same,T/C,"dose: 0.06 mg/kg/injection, schedule: Q01DX015 (ip), vehicle: carboxymethylcellulose (CMC)",123 % of control
same,T/C,"dose: 0.25 mg/kg/injection, schedule: Q01DX015 (ip), vehicle: carboxymethylcellulose (CMC)",105 % of control
same,T/C,"dose: 5.0 mg/kg/injection, schedule: Q01DX001 (ip), vehicle: carboxymethylcellulose (CMC)",157 % of control and 173 % of control
same,T/C,"dose: 11.25 mg/kg/injection, schedule: Q01DX001 (ip), vehicle: carboxymethylcellulose (CMC)",91 % of control
same,T/C,"dose: 20.0 mg/kg/injection, schedule: Q01DX001 (ip), vehicle: carboxymethylcellulose (CMC)",89 % of control
Cc1cc(=O)n(Cc2ccccc2)c(=O)[nH]1,T/C,[9],98 % of control
same,T/C,[11],98 % of control
same,T/C,[12],93 % of control
CC(=O)Nc1ccc2c(c1)Cc1cc(N=Cc3ccc4c(c3)OCO4)ccc1-2,T/C,[6],91 % of control
same,T/C,[7],104 % of control
same,T/C,[8],93 % of control
CN=C(NC)NCc1ccccc1,T/C,"dose: 50.0 mg/kg/injection, schedule: Q01DX001 (ip), vehicle: saline",95 % of control
same,T/C,[1],97 % of control
CC(=O)OCc1cccnc1,T/C,[10],95 % of control
same,T/C,"dose: 200.0 mg/kg/injection, schedule: Q04DX003 (ip), vehicle: saline with Tween-80",94 % of control
same,T/C,"dose: 400.0 mg/kg/injection, schedule: Q04DX003 (ip), vehicle: saline with Tween-80",97 % of control
CC(O)(c1ccccc1)C(C)(O)c1ccccc1 (stereo not given),T/C,"dose: 50.0 mg/kg/injection, schedule: Q04DX002 (ip), vehicle: saline with Tween-80",114 % of control
same,T/C,"dose: 100.0 mg/kg/injection, schedule: Q04DX002 (ip), vehicle: saline with Tween-80",96 % of control
same,T/C,"dose: 200.0 mg/kg/injection, schedule: Q04DX002 (ip), vehicle: saline with Tween-80",93 % of control
c1ccc(Sc2ccc3ccccc3c2)cc1,T/C,[13],103 % of control
same,T/C,[15],97 % of control
same,T/C,[14],93 % of control
CCOC(=O)CCOCOCCC(=O)OCC,T/C,[4],106 % of control
same,T/C,[5],110 % of control
same,T/C,"dose: 400.0 mg/kg/injection, schedule: Q04DX003 (ip), vehicle: saline",95 % of control
NC(=S)N1N=C(c2cccc([N+](=O)[O-])c2)CCC1=O,T/C,[13],92 % of control
same,T/C,[15],92 % of control
same,T/C,[14],101 % of control
